This assay concerns the target T1, human PAH with the R408W mutation (Homo sapiens, UniProt P00439, R408W).
T1 construct: expressed in transfected cells
T1 sequence (P00439 1-452 R408W): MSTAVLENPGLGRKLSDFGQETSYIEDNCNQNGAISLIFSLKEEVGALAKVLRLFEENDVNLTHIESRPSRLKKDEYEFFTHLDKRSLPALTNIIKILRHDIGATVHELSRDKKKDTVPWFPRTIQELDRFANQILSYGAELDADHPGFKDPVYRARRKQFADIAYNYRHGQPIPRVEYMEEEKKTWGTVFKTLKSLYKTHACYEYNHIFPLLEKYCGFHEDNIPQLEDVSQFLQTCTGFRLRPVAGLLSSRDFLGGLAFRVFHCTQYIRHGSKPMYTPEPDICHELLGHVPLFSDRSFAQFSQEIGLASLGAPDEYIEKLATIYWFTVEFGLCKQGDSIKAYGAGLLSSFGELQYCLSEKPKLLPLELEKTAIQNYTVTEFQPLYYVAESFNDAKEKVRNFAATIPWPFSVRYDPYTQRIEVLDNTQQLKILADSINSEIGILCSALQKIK
The assay is described as follows: Cell Based Phenylalanine Flux Assay.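 Note: after compound treatment, cells received sepiapterin plus isotope-labelled Phenylalanine for 4 hours, then labelled Tyrosine in the medium was quantified, 10-point 2-fold dilution series run in duplicate.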 As to conditions: A375 cells expressing human R408W PAH; 24 hrs compound incubation; 13C-Tyrosine by LC-MS; average where tested multiple times; read-out: AC50.
For orientation: AC50 means the concentration at which the activity in the assay is half-maximal. Turning to `Cc1cccc2cc([C@H]3c4nc[nH]c4CCN3C(=O)c3oc(C4(O)CC4)nc3C(F)F)nn12` [Example 1281, (R)-(4-(difluoromethyl)-2-(1-hydroxycyclopropyl)oxazol-5-yl)(4-(7-methylpyrazolo[1,5-a]pyridin-2-yl)-6,7-dihydro-1H-imidazo[4,5-c]pyridin-5(4H)-yl)methanone], the AC50 was 1000 to 5000 nM.
The value for `Cc1nnc(C(=O)N2CCc3[nH]cnc3[C@H]2c2cc3c(C(F)F)cccn3n2)o1` [Example 1283, (S)-(4-(4-(difluoromethyl)pyrazolo[1,5-a]pyridin-2-yl)-6,7-dihydro-1H-imidazo[4,5-c]pyridin-5(4H)-yl)(5-methyl-1,3,4-oxadiazol-2-yl)methanone] was 500 to 1000 nM; that for `CC1(c2nnc(C(=O)N3CCc4[nH]cnc4[C@H]3c3cc4ccccn4n3)o2)CC1` [Example 1284, (S)-(5-(1-methylcyclopropyl)-1,3,4-oxadiazol-2-yl)(4-(pyrazolo[1,5-a]pyridin-2-yl)-6,7-dihydro-1H-imidazo[4,5-c]pyridin-5(4H)-yl)methanone] was under 500 nM.
For the compound `CC1(c2nnc(C(=O)N3CCc4[nH]cnc4[C@@H]3c3cc4ccccn4n3)o2)CC1` [Example 1285, (R)-(5-(1-methylcyclopropyl)-1,3,4-oxadiazol-2-yl)(4-(pyrazolo[1,5-a]pyridin-2-yl)-6,7-dihydro-1H-imidazo[4,5-c]pyridin-5(4H)-yl)methanone], the AC50 lay within 1000 to 5000 nM.
The value for `Cc1cccn2nc([C@@H]3c4nc[nH]c4CCN3C(=O)c3cnn4ccccc34)cc12` [Example 1286, (S)-(4-(4-methylpyrazolo[1,5-a]pyridin-2-yl)-6,7-dihydro-1H-imidazo[4,5-c]pyridin-5(4H)-yl)(pyrazolo[1,5-a]pyridin-3-yl)methanone] was under 500 nM.
The value for `Cc1cccn2nc([C@H]3c4nc[nH]c4CCN3C(=O)c3cnn4ccccc34)cc12` [Example 1287, (R)-(4-(4-methylpyrazolo[1,5-a]pyridin-2-yl)-6,7-dihydro-1H-imidazo[4,5-c]pyridin-5(4H)-yl)(pyrazolo[1,5-a]pyridin-3-yl)methanone] was 500 to 1000 nM.
For `O=C(c1cnn2ccccc12)N1CCc2[nH]cnc2[C@@H]1c1cc2c(F)cccn2n1` [Example 1288, (R)-(4-(4-fluoropyrazolo[1,5-a]pyridin-2-yl)-6,7-dihydro-1H-imidazo[4,5-c]pyridin-5(4H)-yl)(pyrazolo[1,5-a]pyridin-3-yl)methanone], the AC50 lay in the range of 500 to 1000 nM.
The value for `O=C(c1cnn2ccccc12)N1CCc2[nH]cnc2[C@H]1c1cc2c(F)cccn2n1` [Example 1289, (S)-(4-(4-fluoropyrazolo[1,5-a]pyridin-2-yl)-6,7-dihydro-1H-imidazo[4,5-c]pyridin-5(4H)-yl)(pyrazolo[1,5-a]pyridin-3-yl)methanone] was under 500 nM; that for `c1ccc(-c2nnc(N3CCc4[nH]cnc4[C@@H]3c3cc4ccccn4n3)o2)nc1` [Example 1290, (R)-2-(4-(pyrazolo[1,5-a]pyridin-2-yl)-6,7-dihydro-1H-imidazo[4,5-c]pyridin-5(4H)-yl)-5-(pyridin-2-yl)-1,3,4-oxadiazole] was 1000 to 5000 nM.
The value for `c1ccc(-c2nnc(N3CCc4[nH]cnc4[C@H]3c3cc4ccccn4n3)o2)nc1` [Example 1291, (S)-2-(4-(pyrazolo[1,5-a]pyridin-2-yl)-6,7-dihydro-1H-imidazo[4,5-c]pyridin-5(4H)-yl)-5-(pyridin-2-yl)-1,3,4-oxadiazole] was 500 to 1000 nM; that for `O=C(c1nnc(-c2cccnc2)o1)N1CCc2[nH]cnc2[C@H]1c1cc2c(Cl)cccn2n1` [Example 1292, (S)-(4-(4-chloropyrazolo[1,5-a]pyridin-2-yl)-6,7-dihydro-1H-imidazo[4,5-c]pyridin-5(4H)-yl)(5-(pyridin-3-yl)-1,3,4-oxadiazol-2-yl)methanone] was under 500 nM; that for `O=C(c1nnc(-c2cccnc2)o1)N1CCc2[nH]cnc2[C@@H]1c1cc2c(Cl)cccn2n1` [Example 1293, (R)-(4-(4-chloropyrazolo[1,5-a]pyridin-2-yl)-6,7-dihydro-1H-imidazo[4,5-c]pyridin-5(4H)-yl)(5-(pyridin-3-yl)-1,3,4-oxadiazol-2-yl)methanone] was 1000 to 5000 nM.
Regarding `O=C(c1nnc(-c2ncccc2F)o1)N1CCc2[nH]cnc2[C@@H]1c1cc2c(Cl)cccn2n1` [Example 1294, (R)-(4-(4-chloropyrazolo[1,5-a]pyridin-2-yl)-6,7-dihydro-1H-imidazo[4,5-c]pyridin-5(4H)-yl)(5-(3-fluoropyridin-2-yl)-1,3,4-oxadiazol-2-yl)methanone], the AC50 lay in the range of 1000 to 5000 nM.
Turning to `O=C(c1nnc(-c2ncccc2F)o1)N1CCc2[nH]cnc2[C@H]1c1cc2c(Cl)cccn2n1` [Example 1295, (S)-(4-(4-chloropyrazolo[1,5-a]pyridin-2-yl)-6,7-dihydro-1H-imidazo[4,5-c]pyridin-5(4H)-yl)(5-(3-fluoropyridin-2-yl)-1,3,4-oxadiazol-2-yl)methanone], the AC50 was under 500 nM.
On to `CC1(c2nnc(C(=O)N3CCc4[nH]cnc4[C@H]3c3cc4cccc(Cl)n4n3)o2)CC1` [Example 1296, (S)-(4-(7-chloropyrazolo[1,5-a]pyridin-2-yl)-6,7-dihydro-1H-imidazo[4,5-c]pyridin-5(4H)-yl)(5-(1-methylcyclopropyl)-1,3,4-oxadiazol-2-yl)methanone], for which the AC50 is under 500 nM.
The value for `CC1(c2nnc(C(=O)N3CCc4[nH]cnc4[C@@H]3c3cc4cccc(Cl)n4n3)o2)CC1` [Example 1297, (R)-(4-(7-chloropyrazolo[1,5-a]pyridin-2-yl)-6,7-dihydro-1H-imidazo[4,5-c]pyridin-5(4H)-yl)(5-(1-methylcyclopropyl)-1,3,4-oxadiazol-2-yl)methanone] was 1000 to 5000 nM; that for `COc1ccc(-c2nnc(C(=O)N3CCc4[nH]cnc4[C@@H]3c3cc4c(Cl)cccn4n3)o2)nc1` [Example 1298, (R)-(4-(4-chloropyrazolo[1,5-a]pyridin-2-yl)-6,7-dihydro-1H-imidazo[4,5-c]pyridin-5(4H)-yl)(5-(5-methoxypyridin-2-yl)-1,3,4-oxadiazol-2-yl)methanone] was 1000 to 5000 nM; that for `O=C(c1nnc(-c2cnccn2)o1)N1CCc2[nH]cnc2[C@H]1c1cc2c(C(F)(F)F)cccn2n1` [Example 1300, (S)-(5-(pyrazin-2-yl)-1,3,4-oxadiazol-2-yl)(4-(4-(trifluoromethyl)pyrazolo[1,5-a]pyridin-2-yl)-6,7-dihydro-1H-imidazo[4,5-c]pyridin-5(4H)-yl)methanone] was under 500 nM.
Consider `O=C(c1nnc(-c2cnccn2)o1)N1CCc2[nH]cnc2[C@@H]1c1cc2c(C(F)(F)F)cccn2n1` [Example 1301, (R)-(5-(pyrazin-2-yl)-1,3,4-oxadiazol-2-yl)(4-(4-(trifluoromethyl)pyrazolo[1,5-a]pyridin-2-yl)-6,7-dihydro-1H-imidazo[4,5-c]pyridin-5(4H)-yl)methanone], for which the AC50 was over 5000 nM.
For `O=C(c1nnc(-c2cccnc2)o1)N1CCc2[nH]cnc2[C@H]1c1cc2c(C(F)(F)F)cccn2n1` [Example 1302, (S)-(5-(pyridin-3-yl)-1,3,4-oxadiazol-2-yl)(4-(4-(trifluoromethyl)pyrazolo[1,5-a]pyridin-2-yl)-6,7-dihydro-1H-imidazo[4,5-c]pyridin-5(4H)-yl)methanone], the AC50 is under 500 nM.
As for `O=C(c1nnc(-c2cccnc2)o1)N1CCc2[nH]cnc2[C@@H]1c1cc2c(C(F)(F)F)cccn2n1` [Example 1303, (R)-(5-(pyridin-3-yl)-1,3,4-oxadiazol-2-yl)(4-(4-(trifluoromethyl)pyrazolo[1,5-a]pyridin-2-yl)-6,7-dihydro-1H-imidazo[4,5-c]pyridin-5(4H)-yl)methanone], the half-maximal activity concentration (AC50) lay in the range of 1000 to 5000 nM.
With `Cc1ncccc1-c1nnc(C(=O)N2CCc3[nH]cnc3[C@H]2c2cc3c(C(F)(F)F)cccn3n2)o1` [Example 1304, (S)-(5-(2-methylpyridin-3-yl)-1,3,4-oxadiazol-2-yl)(4-(4-(trifluoromethyl)pyrazolo[1,5-a]pyridin-2-yl)-6,7-dihydro-1H-imidazo[4,5-c]pyridin-5(4H)-yl)methanone], the AC50 is under 500 nM.
The value for `O=C(c1nnc(-c2cccnc2)o1)N1CCc2[nH]cnc2[C@H]1c1cc2cccc(Cl)n2n1` [Example 1306, (S)-(4-(7-chloropyrazolo[1,5-a]pyridin-2-yl)-6,7-dihydro-1H-imidazo[4,5-c]pyridin-5(4H)-yl)(5-(pyridin-3-yl)-1,3,4-oxadiazol-2-yl)methanone] was under 500 nM; that for `O=C(c1nnc(-c2cccnc2)o1)N1CCc2[nH]cnc2[C@@H]1c1cc2cccc(Cl)n2n1` [Example 1307, (R)-(4-(7-chloropyrazolo[1,5-a]pyridin-2-yl)-6,7-dihydro-1H-imidazo[4,5-c]pyridin-5(4H)-yl)(5-(pyridin-3-yl)-1,3,4-oxadiazol-2-yl)methanone] was 1000 to 5000 nM.
The value for `Cc1cccc2cc([C@@H]3c4nc[nH]c4CCN3C(=O)c3nnc(-c4cccnc4)o3)nn12` [Example 1308, (S)-(4-(7-methylpyrazolo[1,5-a]pyridin-2-yl)-6,7-dihydro-1H-imidazo[4,5-c]pyridin-5(4H)-yl)(5-(pyridin-3-yl)-1,3,4-oxadiazol-2-yl)methanone] was under 500 nM; that for `Cc1cccc2cc([C@H]3c4nc[nH]c4CCN3C(=O)c3nnc(-c4cccnc4)o3)nn12` [Example 1309, (R)-(4-(7-methylpyrazolo[1,5-a]pyridin-2-yl)-6,7-dihydro-1H-imidazo[4,5-c]pyridin-5(4H)-yl)(5-(pyridin-3-yl)-1,3,4-oxadiazol-2-yl)methanone] was 1000 to 5000 nM.
